Assay results: PMC6277434, “Discovery of a potent HMG-CoA reductase degrader that eliminates statin-induced reductase accumulation and lowers cholesterol” (Nature Communications, 2018)
Where two headings read alike, the source gives them in different places.

Tests used:
HMGCR (TM1-8)-GFP [1] = target: T1, HMGCR (TM1-8)-GFP (Cricetulus griseus, UniProt P00347)
T1 sequence (P00347 1-346): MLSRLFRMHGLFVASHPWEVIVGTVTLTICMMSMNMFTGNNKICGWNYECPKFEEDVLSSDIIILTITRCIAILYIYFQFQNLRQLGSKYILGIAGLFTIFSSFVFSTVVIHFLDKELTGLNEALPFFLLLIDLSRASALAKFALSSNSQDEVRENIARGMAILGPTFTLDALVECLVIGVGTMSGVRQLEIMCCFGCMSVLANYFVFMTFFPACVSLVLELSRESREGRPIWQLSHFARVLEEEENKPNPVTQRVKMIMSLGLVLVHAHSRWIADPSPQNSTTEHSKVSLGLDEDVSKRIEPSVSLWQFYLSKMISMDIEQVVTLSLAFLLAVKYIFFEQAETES
Description: (§1) We thus generated a cell line stably expressing the transmembrane domain of HMGCR fused with green fluorescent protein (GFP) as a reporter (HMGCR (TM1-8)-GFP) (Fig. 2a).
(§2) CHO-7 cells were transfected with pCMV-HMGCR (TM1-8)-GFP using FuGENE HD. Twenty-four hours, cells were switched to medium B supplemented with 5% FBS and selected in the presence of 1 mg ml^−1 G418 for 2 weeks. Surviving colonies were isolated and confirmed for GFP expression by immunoblotting and immunofluorescence. The resulting CHO-7/HMGCR (TM1-8)-GFP stable cell line (CHG) was maintained in medium B supplemented with 5% FBS and 200 μg ml^−1 G418.
(§3) CHG cells were treated as described in figure legends. Briefly, cells were seeded at day 0 in 96-well black plate (3904, Corning) at a density of 1.5 × 10^4 cells per well, in medium B containing with 5% LPDS. Day 1, corresponding compounds were added as figure legends described in medium B with 5% LPDS, 1 μM lovastatin, 50 μM sodium mevalonate for 16 h. Then cells were fixed with 4% paraformaldehyde for 20 min, washed with PBS for three times, and stained with 2 μg ml^−1 Hoechst 33342.
(§4) The fluorescent images (GFP and Hoechst channel) were captured using an Operatta High-Content Imaging System (PerkinElmer) with a ×20 objective. The cytoplasmic GFP fluorescence was measured with the Harmony Software (PerkinElmer). Five random selected filed per well were captured, and about 3000 cells were used to determine the mean cytoplasmic GFP fluorescent intensity per cell after subtracting background GFP intensity. The average GFP intensity of DMSO-treated cells was defined as 100.

HMGCR (TM1-8)-GFP [2] = target: T1, HMGCR (TM1-8)-GFP; test: HMGCR (TM1-8)-GFP fluorescent assay (high-content imaging) in CHG cells
Description: as §1, §2, §3, §4

[3] = read-out: Mean (HMGCR (TM1-8)-GFP signal relative to 0 μM = 100)
[4] = 16 h, read-out: HMGCR (TM1-8)-GFP fluorescent intensity, mean

Compound | DC50 (HMGCR (TM1-8)-GFP [1]) [nM] | remaining activity at 0.156 µM (HMGCR (TM1-8)-GFP [2]; [3]) [%] | remaining activity at 0.313 µM (HMGCR (TM1-8)-GFP [2]; [3]) [%] | remaining activity at 0.625 µM (HMGCR (TM1-8)-GFP [2]; [3]) [%] | remaining activity at 1.25 µM (HMGCR (TM1-8)-GFP [2]; [3]) [%] | remaining activity at 2.5 µM (HMGCR (TM1-8)-GFP [2]; [3]) [%] | remaining activity at 5 µM (HMGCR (TM1-8)-GFP [2]; [3]) [%] | remaining activity at 10 µM (HMGCR (TM1-8)-GFP [2]; [3]) [%] | remaining activity at 0.01 µM (HMGCR (TM1-8)-GFP [2]; [4]) [%] | remaining activity at 0.1 µM (HMGCR (TM1-8)-GFP [2]; [4]) [%] | remaining activity at 0.3 µM (HMGCR (TM1-8)-GFP [2]; [4]) [%] | remaining activity at 1 µM (HMGCR (TM1-8)-GFP [2]; [4]) [%] | remaining activity at 3 µM (HMGCR (TM1-8)-GFP [2]; [4]) [%] | remaining activity at 10 µM (HMGCR (TM1-8)-GFP [2]; [4]) [%] | remaining activity at 20 µM (HMGCR (TM1-8)-GFP [2]; [4]) [%] | remaining activity at 30 µM (HMGCR (TM1-8)-GFP [2]; [4]) [%] | remaining activity at 0.03 µM (HMGCR (TM1-8)-GFP [2]; [4]) [%]
COCCCC[C@@H](C)C1CCC2C3C(CC[C@@]21C)[C@@]1(C)CC[C@H](O)C(C)(C)C1=C[C@@H]3O (some centres unmarked) [Compound 78] | 1850 | 105 | 98 | 81.1 | 60.7 | 36.9 | 21.4 | 15.7 |  |  |  |  |  |  |  |  | 
COC(=O)CCC[C@@H](C)C1CCC2C3C(CC[C@@]21C)[C@@]1(C)CC[C@H](O)C(C)(C)C1=C[C@@H]3O (some centres unmarked) [Compound 72] | 6770 | 109 | 104 | 96.6 | 89.7 | 77.5 | 56.3 | 40.9 |  |  |  |  |  |  |  |  | 
C[C@H](CCC(C)(C)O)C1CCC2C3C(CC[C@@]21C)[C@@]1(C)CC[C@H](O)C(C)(C)C1=C[C@@H]3O (some centres unmarked) [Compound 56] | 52100 | 88.3 | 94.2 | 92.2 | 79.4 | 78.7 | 72.2 | 69.4 |  |  |  |  |  |  |  |  | 
C[C@H](CCCCCCO)C1CCC2C3C(CC[C@@]21C)[C@@]1(C)CC[C@H](O)C(C)(C)C1=C[C@@H]3O (some centres unmarked) [Compound 113] | 1720 | 94.7 | 91.3 | 72.7 | 57.4 | 35.8 | 22 | 24.1 |  |  |  |  |  |  |  |  | 
C[C@H](CCCCC(=O)O)C1CCC2C3C(CC[C@@]21C)[C@@]1(C)CC[C@H](O)C(C)(C)C1=C[C@@H]3O (some centres unmarked) [Compound 92] | 12300 | 104 | 98.4 | 98.7 | 96.3 | 87 | 71.8 | 58 |  |  |  |  |  |  |  |  | 
CCC(O)(CC)CC[C@@H](C)C1CCC2C3C(CC[C@@]21C)[C@@]1(C)CC[C@H](O)C(C)(C)C1=C[C@@H]3O (some centres unmarked) [Compound 57] | 1750 | 96.7 | 90.2 | 75.6 | 53.1 | 36.2 | 26 | 23.7 |  |  |  |  |  |  |  |  | 
CCC(O)CCCCC[C@@H](C)C1CCC2C3C(CC[C@@]21C)[C@@]1(C)CC[C@H](O)C(C)(C)C1=C[C@@H]3O (some centres unmarked) [Compound 125] | 1830 | 83.6 | 77.5 | 65.3 | 50.2 | 41.6 | 34.7 | 33.6 |  |  |  |  |  |  |  |  | 
CC(C)CCC[C@@H](C)[C@H]1CC[C@H]2[C@@H]3CC=C4C(C)(C)[C@@H](O)CC[C@]4(C)[C@H]3CC[C@]12C [Compound 7, 4,4-Dimethyl cholesterol] | 14600 |  |  |  |  |  |  |  | 101 | 104 | 92.8 | 83.5 | 71.9 | 56.7 | 47.9 | 35.9 | 
CCC(O)(CC)CCCCC[C@@H](C)C1CCC2C3C(CC[C@@]21C)[C@@]1(C)CC[C@H](O)C(C)(C)C1=C[C@@H]3O (some centres unmarked) [Compound 118] | 970 | 93.8 | 76.6 | 55.5 | 38.3 | 26.4 | 20.4 | 21.8 |  |  |  |  |  |  |  |  | 
C=CCC(O)CCCCC[C@@H](C)C1CCC2C3C(CC[C@@]21C)[C@@]1(C)CC[C@H](O)C(C)(C)C1=C[C@@H]3O (some centres unmarked) [Compound 126] | 2450 | 76.4 | 72.3 | 58.7 | 50.3 | 44.6 | 45.5 | 44.4 |  |  |  |  |  |  |  |  | 
C=CCC(O)CCCC[C@@H](C)C1CCC2C3C(CC[C@@]21C)[C@@]1(C)CC[C@H](O)C(C)(C)C1=C[C@@H]3O (some centres unmarked) [Compound 109] | 910 | 91 | 76.5 | 54.8 | 36.4 | 23.5 | 18.8 | 25.2 |  |  |  |  |  |  |  |  | 
CCC(O)CCC[C@@H](C)C1CCC2C3C(CC[C@@]21C)[C@@]1(C)CC[C@H](O)C(C)(C)C1=C[C@@H]3O (some centres unmarked) [Compound 87] | 1080 | 91.3 | 78.3 | 62.1 | 43.1 | 26.7 | 20.1 | 18.9 |  |  |  |  |  |  |  |  | 
C=CCC(O)(CC=C)CC[C@@H](C)C1CCC2C3C(CC[C@@]21C)[C@@]1(C)CC[C@H](O)C(C)(C)C1=C[C@@H]3O (some centres unmarked) [Compound 58] | 4500 | 106 | 110 | 104 | 92.1 | 68.2 | 43.8 | 25.3 |  |  |  |  |  |  |  |  | 
CCC(O)(CC)CCC[C@@H](C)C1CCC2C3C(CC[C@@]21C)[C@@]1(C)CC[C@H](O)C(C)(C)C1=C[C@@H]3O (some centres unmarked) [Compound 80] | 550 | 85.3 | 75.8 | 58.1 | 33.7 | 18.3 | 12.1 | 10.3 |  |  |  |  |  |  |  |  | 
CC(C)CCC[C@@H](C)[C@H]1CCC2C3C(=NO)C=C4C(C)(C)[C@@H](O)CC[C@]4(C)C3CC[C@@]21C (some centres unmarked) [Compound 34] | 60800 |  |  |  |  |  |  |  |  | 103 | 93.6 | 75.2 | 65.6 | 62 | 65.8 | 62.1 | 99.1
C=CCC(O)(CC=C)CCCCC[C@@H](C)C1CCC2C3C(CC[C@@]21C)[C@@]1(C)CC[C@H](O)C(C)(C)C1=C[C@@H]3O (some centres unmarked) [Compound 119] | 4130 | 92.9 | 96 | 91.6 | 81.1 | 62.7 | 42.5 | 28.9 |  |  |  |  |  |  |  |  | 
C=CCC(O)CCC[C@@H](C)C1CCC2C3C(CC[C@@]21C)[C@@]1(C)CC[C@H](O)C(C)(C)C1=C[C@@H]3O (some centres unmarked) [Compound 88] | 910 | 82.3 | 75.6 | 67.9 | 37.1 | 17.6 | 12 | 16.6 |  |  |  |  |  |  |  |  | 
COCCC[C@@H](C)C1CCC2C3C(CC[C@@]21C)[C@@]1(C)CC[C@H](O)C(C)(C)C1=C[C@@H]3O (some centres unmarked) [Compound 55] | 2290 | 100 | 100 | 83 | 63.8 | 43.1 | 28.5 | 21.9 |  |  |  |  |  |  |  |  | 
C[C@H](CCCC(=O)O)C1CCC2C3C(CC[C@@]21C)[C@@]1(C)CC[C@H](O)C(C)(C)C1=C[C@@H]3O (some centres unmarked) [Compound 73] | 60600 | 97 | 97.9 | 97.7 | 98.1 | 92.6 | 87.2 | 81.4 |  |  |  |  |  |  |  |  | 
C=CCC(O)CC[C@@H](C)C1CCC2C3C(CC[C@@]21C)[C@@]1(C)CC[C@H](O)C(C)(C)C1=C[C@@H]3O (some centres unmarked) [Compound 65] | 2330 | 108 | 103 | 93.6 | 78.4 | 40.4 | 22.1 | 14 |  |  |  |  |  |  |  |  | 
C[C@H](CCCCO)C1CCC2C3C(CC[C@@]21C)[C@@]1(C)CC[C@H](O)C(C)(C)C1=C[C@@H]3O (some centres unmarked) [Compound 74] | 4520 | 96.8 | 94.2 | 92.9 | 83.2 | 62.6 | 44.4 | 33 |  |  |  |  |  |  |  |  | 
CC(C)CCC[C@@H](C)[C@H]1CCC2C3C(CC[C@@]21C)[C@@]1(C)CC[C@H](O)C(C)(C)C1=C[C@H]3O (some centres unmarked) [Compound 36] | 11900 |  |  |  |  |  |  |  | 106 | 108 | 91.3 | 93.6 | 69.8 | 58.6 | 37.2 |  | 91.7
